Patent US20240226049A1, “METHODS OF TREATMENT USING BEMPEDOIC ACID” (Esperion Therapeutics, Inc., priority 2023, published 2024)

Tested on: statin-intolerant patients with or at high risk of CVD
Assay type: in vivo
Excerpt: The CLEAR OUTCOMES trial was a randomized, placebo-controlled, double-blind trial that enrolled patients at 1250 sites in 32 countries. An independent Data Monitoring Committee reviewed safety and efficacy data during the trial.
Patients 18 to 85 years of age were eligible for enrollment if they met either of two criteria for increased cardiovascular risk, a prior cardiovascular event (secondary prevention) or clinical features that placed them at high risk for a cardiovascular event (primary prevention). (Nicholls S. Lincoff A M, Bays H E, et al. Rationale and design of the CLEAR-outcomes trial: Evaluating the effect of bempedoic acid on cardiovascular events in patients with statin intolerance. Am Heart J. 2021 May; 235:104-112) All patients provided written informed consent. Patients had to report statin intolerance due to an adverse effect that started or increased during statin therapy and resolved or improved after statin therapy was discontinued. Patients could be enrolled if they tolerated a very low average daily statin dose (e.g., an average daily dose of rosuvastatin <5 mg, atorvastatin <10 mg, simvastatin <10 mg, lovastatin <20 mg, pravastatin <40 mg, fluvastatin <40 mg, or pitavastatin <2 mg). Other lipid-lowering therapies were permitted, including ezetimibe, niacin, bile acid resins, fibrates, and/or proprotein convertase subtilisin kexin type 9 (PCSK9) inhibitors. Full inclusion and exclusion criteria are provided in Nicholls et al. (Am Heart J. 2021).
Eligible patients entered a 4-week run-in period during which patients were treated with single-blind placebo. If patients were intolerant to placebo treatment or if adherence was <80% by tablet count, they were not eligible for randomization. Patients who successfully completed the run-in period were randomly assigned in a 1:1 ratio to receive bempedoic acid at an oral dose of 180 mg or matching placebo, administered daily. Beginning 6 months after enrollment, the central laboratory notified the investigator if the patient's LDL-cholesterol level was ≥25% higher than baseline. These patients were counseled on healthy dietary guidelines and reminded to take all lipid-regulating medications. If repeat testing confirmed that LDL-cholesterol value met the threshold criteria, the provider could adjust the lipid-lowering treatment regimen per standard of care and local guidelines.
The primary end point was the first occurrence of a composite of death from cardiovascular causes, nonfatal myocardial infarction (MI), nonfatal stroke, or coronary revascularization. The first key secondary end point was time to the first occurrence of the composite of cardiovascular death, nonfatal stroke, or MI. Further key secondary end points included time to first occurrence of each of the following outcomes tested in hierarchical order, fatal or nonfatal MI, coronary revascularization, fatal or nonfatal stroke, death from cardiovascular causes, and all-cause mortality.
This was an event-driven trial designed to provide at least 90% power to detect a 15% relative risk reduction for the primary composite end point at an overall two-sided significance level of 0.05. The trial required a minimum of 1620 primary composite events with ≥24 months of follow-up for all patients and at least 810 first key secondary end points. The average treatment duration was estimated to be 42 months and a lost-to-follow-up rate of 1% per year. Assuming a 3.59% annual event rate in the placebo group, enrollment of 12,600 patients was required, subsequently amended to 14,000. There were no interim efficacy analyses. A hierarchical approach was prespecified to evaluate sequentially each of the six key secondary efficacy end points with statistical significance at each step required to test the next hypothesis, thereby preserving the study-wise Type I error rate at 5%. All analyses were based on the intent-to-treat principle. […]

[1] = full population, 180 mg oral daily, N = 6992

With `CC(C)(CCCCCC(O)CCCCCC(C)(C)C(=O)O)C(=O)O` [Bempedoic Acid, Bempedoic acid] the “effect on other key secondary end points (time to first occurrence of stroke, death from cardiovascular causes, all-cause mortality)” value (compared with placebo, full population) was “no significant effects”, the “3-component MACE, % of patients” value [1] was “(8.2) %” and the “Coronary revascularization, % of patients” value [1] was “(6.2) %”. The “Fatal and non-fatal MI, % of patients” value [1] was “(3.7) %”, the “Primary efficacy endpoint (MACE-4), % of patients” value [1] was “(11.7) %” and the “New-onset type 2 diabetes mellitus, Hazard Ratio” value (human, in vivo) was 0.95. For the same compound, the “reduction in risk of non-fatal myocardial infarction” value (vs placebo, 180 mg oral daily) was “about 27%”, the “3-component MACE, Hazard Ratio” value (vs placebo, full population) was 0.85 and the “5 component MACE, Hazard Ratio” value (vs placebo, full population) was 0.86. For the same compound, the “All-cause mortality, nonfatal MI, nonfatal stroke, or coronary revascularization, Hazard Ratio” value (vs placebo, full population) was 0.89, the “Coronary revascularization, Hazard Ratio” value (vs placebo, full population) was 0.81 and the “Fatal and non-fatal MI, Hazard Ratio” value (vs placebo, full population) was 0.77. The “Fatal and non-fatal stroke, Hazard Ratio” value (vs placebo, full population) was 0.85, the “Fatal and nonfatal non-hemorrhagic stroke, Hazard Ratio” value (vs placebo, full population) was 0.78 and the “Hospitalization for unstable angina, Hazard Ratio” value (vs placebo, full population) was 0.66. The “Non-fatal MI, Hazard Ratio” value (vs placebo, full population) was 0.73, the “Non-fatal stroke, Hazard Ratio” value (vs placebo, full population) was 0.82 and the “Primary efficacy endpoint (MACE-4), Hazard Ratio” value (vs placebo, full population) was 0.87.
